Key:
Format in all cases: in vivo, human
[1] = tested on: relapsed or refractory lymphoma; assay: Clinical trial of tablets of the compound of formula I in relapsed or refractory lymphoma (Example 2); parameters: key to Best efficacy: “Small SD” means that at the time of efficacy evaluation, a lesion shrinks in size compared with a baseline level, but does not meet the criteria for PR
Procedure: Drug: tablet of the compound of formula I, 1 mg or 5 mg. 2.2 Enrollment Criteria • 1) Unambiguously diagnosed as relapsed or refractory lymphoma by pathology and/or cytology; • 2) Has at least one measurable target lesion other than brain lesions confirmed by imaging in screening phase (evaluated according to the evaluation criteria revised by the Lugano conference, 2014 edition); • 3) Aged 18-75 years; • 4) ECOG (PS) score ≤1; • 5) Expected survival time ≥3 months; • 6) Main organ functions in the screening phase meet the following criteria: Criteria for blood routine examination (no growth factor used or no blood transfusion conducted within 7 days): • Absolute value of neutrophil count (ANC)≥1.5×10^9/L; • Platelet (PLT)≥75×10^9/L; hemoglobin (Hb)≥90 g/L; Criteria for blood biochemical examination: • Alanine transaminase (ALT) and aspartate transferase (AST)≤1.5×ULN (for patients with tumor liver metastasis, ≤3×ULN); • Glycosylated hemoglobin (HbA1c)≤8.5%; • Lipase≤1.5×ULN; • Serum total bilirubin≤1.5×ULN; • Serum creatinine (Cr)≤1.5×ULN; • 7) Doppler ultrasound evaluation: left ventricular ejection fraction (LVEF)≥lower limit of normal (50%); • 8) Female subjects should agree to take contraceptive measures (such as intrauterine devices [IUD], contraceptives or condoms) during the study and for 6 months after the study; serum or urine pregnancy test results should be negative within 7 days before enrollment, and the subjects must not be breastfeeding; male subjects should agree to take contraceptive measures during the study and for 6 months after the study; and • 9) Voluntary participation, written informed consent and good compliance. The efficacy was evaluated according to the revised evaluation criteria of the Lugano conference, 2014 edition. Primary evaluation indexes of efficacy: objective response rate (ORR), i.e., (CR+PR cases)/total cases, including cases of complete response (CR) and partial response (PR). Secondary evaluation indexes of efficacy: progression-free survival (PFS), overall survival (OS), disease control rate (DCR) and duration of response (DOR).

[2] = tested on: relapsed/refractory mantle cell lymphoma; assay: Clinical trial in relapsed/refractory mantle cell lymphoma (Example 3)
Procedure: (§1) Method of administration: orally administered once daily, 20 mg each time, with 28 consecutive days of administration as one cycle. Drug: tablet of the compound of formula I, 5 mg or 20 mg. […] The efficacy was evaluated according to the revised evaluation criteria of the Lugano conference, 2014 edition. Primary evaluation indexes of efficacy: objective response rate (ORR), i.e., (CR+PR cases)/total cases, including cases of complete response (CR) and partial response (PR). Secondary evaluation indexes of efficacy: progression-free survival (PFS), overall survival (OS), disease control rate (DCR) and duration of response (DOR).

[3] = tested on: relapsed or refractory FL; assay: Clinical trial in relapsed or refractory follicular lymphoma (Example 4)
Procedure: as §1

[4] = tested on: relapsed/refractory diffuse large B-cell lymphoma (DLBCL); assay: Clinical trial in relapsed/refractory diffuse large B-cell lymphoma (Example 5); details: 20 mg orally once daily, 21-day cycle
Procedure: as §1, with “21” for “28”

[5] = tested on: Chronic lymphocytic leukemia/small lymphocytic lymphoma; assay: Clinical trial in small lymphocytic lymphoma or chronic lymphocytic leukemia (Example 6); details: 20 mg orally once daily, 28-day cycle
Procedure: as §1, with “evaluated with reference” for “evaluated according”, “to IWCLL2008” for “to the revised”, “criteria and the evaluation criteria revised by” for “criteria of”

[6] = 20 mg QD dose group, 20 patients
[7] = 22 lymphoma patients enrolled, 18 evaluable for efficacy
[8] = Tumor type Lymphoma, 43 patients
[9] = overall conclusion of the trial
[10] = patient R1009, DLBCL, 10 mg/qd, administration cycle C7D28
[11] = patient R1018, FL, 20 mg/bid, administration cycle C2D28
[12] = patient R2008, FL, 10 mg/bid, administration cycle C2D3

For `COc1ncc(-c2ccc3ncc(OCCN(C)C)c(=O)n3c2)cc1NS(=O)(=O)c1ccc(F)cc1Cl` [compound of formula I], the ORR ([1]; 10 mg/qd and higher-dose group (11/15), 22 patients enrolled) was 73%, the “adverse event, a grade 3 hyperglycemia” value [1, 6] was 1 case and the “overall safety and tolerance” value [1, 6] was “good overall safety and tolerance”. The ORR ([1]; 20 mg/qd group (4/4), 22 patients enrolled) was 100%, the “patients achieved CR (best efficacy)” value [1, 7] was 2 patients and the “patients achieved PR (best efficacy)” value [1, 7] was 9 patients. For the same compound, the ORR ([1]; 35 lymphoma patients enrolled, 31 evaluated for efficacy (22/31)) was 71%, the “major grade 3 adverse event and dose-limiting toxicity (DLT) associated with study drugs” value ([1]; 35 lymphoma patients enrolled, controlled and returned to baseline by withdrawal of drug or symptom-oriented treatment) was “hyperglycemia” and the ORR ([1]; 50 lymphoma patients enrolled, 43 evaluated for efficacy (28/43)) was 65%. For the same compound, the “ORR, n (%)” value ([1]; Tumor type CLL, 2 patients) was 2 (100%) n (%), the “CR, n (%)” value ([1]; Tumor type DLBCL, 8 patients) was 2 (25.0%) n (%) and the “ORR, n (%)” value ([1]; Tumor type DLBCL, 8 patients) was 4 (50.0%) n (%). For the same compound, the “CR, n (%)” value ([1]; Tumor type FL, 20 patients) was 2 (10.0%) n (%), the “ORR, n (%)” value ([1]; Tumor type FL, 20 patients) was 15 (75%) n (%) and the “CR, n (%)” value [1, 8] was 4 (9.3%) n (%). The “ORR, n (%)” value [1, 8] was 28 (65%) n (%), the “ORR, n (%)” value ([1]; Tumor type MCL, 5 patients) was 5 (100%) n (%) and the “CR, n (%)” value ([1]; Tumor type NHL, 41 patients) was 4 (9.8%) n (%). For the same compound, the “ORR, n (%)” value ([1]; Tumor type NHL, 41 patients) was 28 (68%) n (%), the Best efficacy ([1]; all the two follicular lymphoma patients in the 20 mg/qd group) was “achieved PR” and the Best efficacy ([1]; all the two mantle cell lymphoma patients, relapsed or refractory after BTK inhibitor treatment) was “achieved PR”. For the same compound, the ORR ([1]; follicular lymphoma (FL), 10 mg/qd and higher-dose group (6/8)) was 75%, the safety [1, 9] was “good safety” and the “therapeutic effect on lymphoma” value [1, 9] was “good therapeutic effect”. For the same compound, the Change in lesion ([1]; patient R1006, FL, 10 mg/qd, administration cycle C5D28) was −84.0%, the Best efficacy [1, 10] was “Small SD” and the Change in lesion [1, 10] was −37.5%. For the same compound, the Best efficacy [1, 11] was “Small SD”, the Change in lesion [1, 11] was −33.0% and the Change in lesion ([1]; patient R2006, DLBCL, 10 mg/qd, administration cycle C3D28) was −100.0%. For the same compound, the Best efficacy [1, 12] was “Small SD”, the Change in lesion [1, 12] was −42.0% and the Change in lesion ([1]; patient R2009, MCL, 10 mg/bid, administration cycle C3D28) was −71.0%. For the same compound, the Change in lesion ([1]; patient R2011, FL, 20 mg/bid, administration cycle C1D14) was −94.0%, the safety in treatment ([2]; 20 mg orally once daily) was “good safety” and the “therapeutic effect on mantle cell lymphoma” value ([2]; 20 mg orally once daily) was “good therapeutic effect”. The CR ([2]; 21 patients with mantle cell lymphoma, 20 mg orally once daily (2 cases)) was 9.5%, the ORR ([2]; 21 patients with mantle cell lymphoma, 20 mg orally once daily (16 cases)) was 76% and the “patients reached ORR” value ([2]; of the 7 patients previously treated with a BTK inhibitor) was “Five”. The safety in treatment ([3]; 20 mg orally once daily) was “good safety”, the “therapeutic effect on follicular lymphoma” value ([3]; 20 mg orally once daily) was “good therapeutic effect” and the CR ([3]; 20 patients with follicular lymphoma, 20 mg orally once daily (2 cases)) was 10.0%. For the same compound, the ORR ([3]; 20 patients with follicular lymphoma, 20 mg orally once daily (14 cases)) was 70%, the safety in treatment [4] was “good safety” and the “therapeutic effect on diffuse large B-cell lymphoma” value [4] was “good therapeutic effect”. The safety in treatment [5] was “good safety” and the “treatment effect on small lymphocytic lymphoma or chronic lymphocytic leukemia” value [5] was “good treatment effect”.

Source: patent US20230132982A1, “USE OF PYRIDO[1,2-A]PYRIMIDINONE COMPOUND IN TREATING LYMPHOMA” (priority 2020, published 2023)
